IC50, Activity and MIC data for three molecules are collected here from ChEMBL document CHEMBL1149034, “8-Hydroxymanzamine A, a beta-carboline alkaloid from a sponge, Pachypellina sp” (J Nat Prod, 1994).

≈ marks a conversion by molar mass, not a printed value. Calls of active or inactive are those of the source. No cut-off for these calls is given here.

Experiment [1] deals with KB. The experiment in a line: Cytotoxicity against human KB cells. The format is functional, cell-based.
Experiment [2] concerns LoVo. The experiment in a line: Cytotoxicity against human LoVo cells. The experiment is classed as functional, cell-based.
Experiment [3] relates to P388. The experiment in a line: Cytotoxicity against mouse P388 cells. The experiment is classed as functional, cell-based.
Experiment [4] relates to Human alphaherpesvirus 2. In words: Antiviral activity against HSV2. The format is functional.

By IC50 is commonly meant the concentration needed to halve the response being measured. The low end stands for greater potency, the high end for weaker potency. With `Oc1cccc2c1[nH]c1c(C3=C[C@@]4(O)CC/C=C\CCCCN5CC[C@@H]3[C@]3(CC6/C=C\CCCCN6[C@H]34)C5)nccc12` (stereo partly specified), the IC50 in experiment [1] turned out to be 0.3 µg/mL (≈ 0.531 µM); in experiment [2], 0.26 µg/mL (≈ 0.46 µM). Further, the outcome in experiment [3] was inactive. The MIC in experiment [4] is 0.1 µg/mL (≈ 0.177 µM).
With `COc1cccc2c1[nH]c1c(C3=C[C@@]4(O)CC/C=C\CCCCN5CC[C@@H]3[C@]3(C[C@@H]6/C=C\CCCCN6[C@H]34)C5)nccc12` [8-METHOXYMANZAMINE A], the IC50 in experiment [1] is 0.33 µg/mL (≈ 0.57 µM); in experiment [2], 0.1 µg/mL (≈ 0.173 µM). The molecule also yielded an MIC in experiment [4] of 0.1 µg/mL (≈ 0.173 µM).
`O[C@]12C=C(c3nccc4c3[nH]c3ccccc34)[C@@H]3CCN(CCCC/C=C\CC1)C[C@@]31C[C@@H]3/C=C\CCCCN3[C@H]12` [MANZAMINE A]: the half-inhibitory concentration (IC50) in experiment [1] was 0.05 µg/mL (≈ 0.0911 µM); in experiment [2] it was 0.15 µg/mL (≈ 0.273 µM); in experiment [3] it was 0.07 µg/mL (≈ 0.128 µM). The MIC in experiment [4] amounted to 0.05 µg/mL (≈ 0.0911 µM).
